For assay [1], the system named is guinea pig tracheal smooth muscle cells. Nature of the assay: Measurement of cAMP in TSMCs. Conditions: for cAMP level / cAMP accumulation versus vehicle (FIG. 6): 100 _M, 20 min; for cAMP level: basal/vehicle 62.6±6.4. The class given is cell-based. The procedure: (§1) Cell Culture of Tracheal Smooth Muscle: Guinea pigs (350-450 g) were injected i.p. with a lethal dose of pentobarbital. The tracheas were excised and cut longitudinally through the cartilage. Using a dissecting microscope, TSM strips were dissected from the surrounding parentchyma. The epithelium was removed from the luminal surface, and bands of TSM were gently separated from the underlying connective tissue. Then TSM strips were chopped into small sections (1 mm^3) and incubated in Hanks' balanced salt solution (138 mM NaCl, 4 mM NaHCO3, 5 mM KCl, 0.3 mM KH2PO4, 0.3 mM Na2HPO4, and 1.0 mM glucose) with 0.05% elastase type IV and 0.2% collagenase type IV (Invitrogen, Carlsbad, Calif.) for 30 min at 37_ with gentle shaking. The solution of dissociated smooth muscle cells was centrifuged (6 min at 500 g), and the pellet was resuspended in 1:1 Dulbecco's modified Eagle's medium/Ham's F-12 medium supplemented with 10% fetal bovine serum, 0.244% NaHCO3, and 1% penicillin/streptomycin. Cells were cultured in 25-cm^2 flasks at 37_ in humidified air containing 5% CO2. Confluent cells were detached with 0.25% trypsin-0.02% EDTA at 37_and then subcultured to establish secondary cultures. Cultures were maintained for no more than four passages. They were identified as smooth muscle cells by the typical hill-and-valley appearance, and cellular homogeneity was further confirmed by the presence of smooth muscle specific _-myosin and _-actin immunoreactivity. Indirect immunofluorescence staining for a variety of antigens was carried out by first plating the cells on chamber slides, fixing the cells in 3.7% formaldehyde-phosphate-buffered saline for 10 min, and permeabilizing the cells with phosphate-buffered saline and 0.1% Triton X-100. Cells were then stained with either a mouse monoclonal antibody directed against the amino-terminal 10 amino acids of _-smooth muscle actin or _-myosin (Roche Diagnostics, Indianapolis, Ind.). All cells were stained with fluorescein-labeled goat anti-mouse IgG antibody (Roche Diagnostics).
(§2) Measurement of cAMP and cGMP: Intracellular concentrations of cAMP and cGMP in TSMCs were measured as in our previous reports (Wu B N, Lin R J, Lin C Y, Shen K P, Chiang L C, and Chen I J (2001) A xanthine-based KMUP-1 with cyclic GMP enhancing and K^+ channels opening activities in rat aortic smooth muscle. Br J Pharmacol 134:265-274; Lin R J, Wu B N, Lo Y C, Shen K P, Lin Y T, Huang C H, and Chen I J (2002) KMUP-1 relaxes rabbit corpus cavernosum smooth muscle in vitro and in vivo: involvement of cyclic GMP and K(+) channels, Br J Pharmacol 135:1159-1166). In brief, cells were finally grown in 24-well plates (10^5 cells/well). At confluence, monolayer cells were washed with phosphate-buffered saline and then incubated with KMUP-3 (0.01-100 _M) for 20 min at 37_ in medium. […] The reaction was terminated by replacement of medium with 1 ml of ice-cold 1 N hydrochloric acid. Cells suspensions were sonicated and then centrifuged at 2500 g for 15 min at 4_. Then, the supernatants were lyophilized and the cAMP and cGMP of each sample were determined using commercially available radioimmunoassay kits (GE Healthcare, Little Chalfont, Buckinghamshire, UK).

Assay [2] has the same test system. Description: Measurement of cGMP in TSMCs. The settings on record: for amounts of cGMP versus vehicle (FIG. 6): 100 _M, 20 min. The class given is cell-based. Here is the method: as §1, §2
Assay [3] has as its system carbachol (1 _M)-precontracted guinea pig trachea. Description: Isolated tracheal preparation, measurement of tension. Conditions: 100 _M, carbachol (1 _M)-precontracted, EP+. Here is the method: Isolated Tracheal preparation and Measurement of Tension: Guinea pigs (350-450 g) were anesthetized with pentobarbital (70 mg/kg) i.p. and killed by a sharp blow on the neck, followed by cervical dislocation. The trachea was excised, cleaned of adhering fat and connective tissue, cut transversely into four to five rings, and then opened by cutting longitudinally through the cartilage rings diametrically opposite the tracheal smooth muscle (Hwang T L, Wu C C, and Teng C M (1999) YC-1 potentiates nitric oxide-induced relaxation in guinea-pig trachea. Br J Pharmacol 128:577-584). Then trachea rings were suspended in a 10-ml organ bath containing Krebs' solution (118 mM NaCl, 25 mM NaHCO3, 4.7 mM KCl, 1.2 mM KH2PO4, 1.2 mM MgSO4, 11 mM glucose, and 2.5 mM CaCl2, pH 7.3-7.4) maintained at 37_and aerated with 95% O2 and 5% CO2. Each tracheal tissue sample was subjected to 2 g of initial basal tension. All experiments were carried out in the presence of indomethacin (3 _M) and propranolol (1 _M) to prevent the formation of prostanoids and to inhibit _-adrenergic responses, respectively. Isometric tension was recorded with a force displacement transducer (model FT03; Grass Instruments, Quincy, M A). Before the start of measurements, all preparations were allowed to equilibrate with frequent washing for 1 h. They were first contracted with carbachol (1 _M) to determine the contractility of preparations. This was also done at the end of each experiment. The preparations were then washed and allowed to equilibrate with Krebs' solution for 50 min before being contracted a second time with carbachol (1 _M). When stable constriction to carbachol was reached, concentration responses of KMUP-3 (10, 30, and 100 _M) were obtained. Data were expressed as percentages of the maximum contractile response to carbachol (1 _M).
In experiments to examine the role of epithelium in tracheal relaxation, the epithelial cells were removed mechanically by rubbing the internal surface of trachea with a fine silver wire, and the removal of the epithelial layer was confirmed by histological examination as previously described (Wu et al., 2004).
To examine the possible mechanism of tracheal relaxant effects of KMUP-3, the tracheal strips were pretreated with a K^+ channel blocker, tetraethylammonium (TEA; 10 mM); a KATP channel blocker, glibenclamide (1-M); voltage-dependent K^+ channel blocker, 4-aminopyridine (4-AP, 100 _M); Ca^2+-dependent K^+ channel blockers, apamin (1 _M) and charybdotoxin (ChTX; 0.1 _M); a sGC inhibitor, 1H-[1,2,4]oxadiazolo[4,3-a]quinoxalin-1-one (ODQ; 1 _M); an NOS inhibitor, N—nitro-L-arginine methyl ester (L-NAME; 100 _M); and an adenylate cyclase (AC) inhibitor, SQ 22536 (100 _M) for 30 min prior to the addition of KMUP-3 (10, 30, and 100 _M). In the other experiments, TSMs were precontracted with 60 mM KCl to examine the relaxation achieved by KMUP-3. The KCl solution was prepared by substituting NaCl with KCl (60 mM) in an equimolar amount.

Assay [4] deals with cultured guinea pig tracheal smooth muscle cells. Description: Expression of PKA and PKG (Western blot). The class given is cell-based. The settings on record: 1 _M, 30 min. Here is the method:
as §1
Expression of PKA and PKG: The expression of PKA and PKG was determined by Western blot as previously described by Wu et al. and Murthy et al. (Wu B N, Lin R J, Lo Y C, Shen K P, Wang C C, Lin Y T, and Chen I J (2004) KMUP-1, a xanthine derivatives, induces relaxation of guinea-pig isolated trachea: the role of the epithelium, cyclic nucleotides and K^+ channels. Br J Pharmacol 142:1105-1114; Murthy K S, Zhou H, and Makhlouf G M (2002) PKA-dependent activation of PDE3A and PDE4 and inhibition of adenylyl cyclase V/VI in smooth muscle. Am J Physiol 282:C508-C517). Guinea pig TSMCs were incubated with KMUP-3 for 30 min. Each of the cell lysates, each containing 1 _g of cellular protein, was electrophoresed in 7.5% SDS-polyacrylamide gel electrophoresis and then transferred to polyvinylidene diflouride membrane (Millipore Corporation, Billerica, Mass.). The membrane was stained with Ponceau S to verify the integrity of the transferred proteins and to monitor the unbiased transfer of all protein samples. The membrane was then washed with 25 ml of TBS (100 mM NaCl, 0.1% and 10 mM Tris-HCl, pH 7.5) for 5 min at room temperature and incubated in 25 ml of blocking buffer (TBS plus 0.1% Tween 20 and 5% nonfat milk) overnight at 4_. In the measurement of protein, the membrane was incubated with appropriate PKARI or PKA1—1— primary antibody (diluted 1:250) in 2 ml of blocking buffer for 1 h at room temperature, washed three times for 5 min each with 15 ml of Tris-buffered saline/Tween 20 (TBS plus 0.1% Tween 20), incubated with horseradish peroxidase-conjugated secondary antibody (1:10,000) in 15 ml of blocking buffer with gentle agitation for 1 h at room temperature, and finally washed three times for 5 min each time with 15 ml of Tris-buffered saline/Tween 20. The membrane was then subjected to enhanced chemiluminescence (GE Healthcare) for the detection of the specific antigen.

The test system of assay [5] is PDE4 purified from human U-937 pronocytic cells. Description: Phosphodiesterase activity, PDE4. It is filed as biochemical. Conditions: 10 _M compound, n = 3. Here is the method: Phosphodiesterase Activity: PDE activity was determined by the method of Nicholson et al. (Nicholson C D, Challiss R A, and Shahid M (1991) Differential modulation of tissue function and therapeutic potential of selective inhibitors of cyclic nucleotide phosphodiesterase isonzymes. Trends Pharmaclo Sci 12:19-27). PDE3 and PDE5 purified from human platelets and PDE4 purified from human U-937 pronocytic cells were used. Test compound (10 _M) or vehicle was incubated with 0.2 _g of enzyme and 1 _M cAMP containing 0.01 _M [^3H]cAMP in Tris buffer, pH 7.5, for 20 min at 25_. The reaction was terminated by boiling for 2 min, and the resulting […] was converted to adenosine by the addition of 10 mg/ml snake venom nucleotidase, which is followed by a further incubation at 37_for 10 min. Unhydrolyzed cAMP was bound to AG1-X2 resin, and the remaining [^3H]adenosine in the aqueous phase was quantitated by scintillation counting.

`C=C[C@@]1(C)CC(=O)[C@]2(O)[C@@]3(C)[C@@H](O)CCC(C)(C)[C@@H]3[C@H](O)[C@H](OC(C)=O)[C@@]2(C)O1` [Forskolin, forskolin, reference compound]: the “cAMP level in presence of SQ 22536” value in assay [1] (100 _M compound plus SQ 22536 (100 _M) pretreatment) came out at 94.33 ± 3.42 pmol/mg protein. In assay [1], this compound yielded a cAMP level of 119.15 ± 5.11 pmol/mg protein.
As for `O=c1onc2cnc3ccccc3n12` [ODQ, 1H-[1,2,4]oxadiazolo[4,3-a]quinoxalin-1-one, reference compound], in assay [2] (10 _M (ODQ alone), vehicle 1.18 ± 0.06), the “Cyclic GMP level” value is 1.12 ± 0.03 pmol/mg protein.
As for `CC(C)Cn1c(=O)n(C)c(=O)c2[nH]cnc21` [IBMX, 3-isobutyl-1-methylxanthine, reference compound], the “relaxation in epithelium-intact trachea (FIG. 3(B))” value (“relaxation” for short) in assay [3] is reported as “cause relaxations”.
For `CCCOc1ccccc1-c1nc2nn[nH]c2c(=O)[nH]1` [zaprinast, reference compound], the “relaxation” value in assay [3] was “cause relaxations”. Besides, the “cAMP accumulation versus vehicle (FIG. 6)” value in assay [1] is “not so”. The “amounts of cGMP versus vehicle (FIG. 6)” value in assay [2] is reported as “significantly enhances”.
As for `CC1(C)Oc2ccc(C#N)cc2[C@@H](N2CCCC2=O)[C@@H]1O` [levcromakalim, reference compound], in assay [3], the “relaxation” value was “displayed relaxation effects”.
Take `Nc1ncnc2c1nc(Br)n2[C@@H]1O[C@@H]2COP(=O)(O)O[C@H]2[C@H]1O` [8-Br-cAMP, reference compound]: the “expression of immunoreactive PKARI protein (FIG. 7(A))” value in assay [4] is “increased the expression of PKARI”.
As to `Cn1c(=O)c2[nH]cnc2n(C)c1=O` [theophylline, reference compound], the “PDE4 Inhibition” value in assay [5] is 7.9±1.2%. Besides, in assay [3], the “relaxation” value was “cause relaxations”. Moreover, the “cAMP accumulation versus vehicle (FIG. 6)” value in assay [1] is reported as “significant elevations”. The “amounts of cGMP versus vehicle (FIG. 6)” value in assay [2] is “significantly enhances”.
Turning to `Nc1nc2c(nc(Br)n2[C@@H]2O[C@@H]3COP(=O)(O)O[C@H]3[C@H]2O)c(=O)[nH]1` [8-Br-cGMP, reference compound], the “expression of PKA1—1— (FIG. 7(B))” value in assay [4] is on record as “increased the expression of PKA1—1—”.
On to `Nc1ncnc2c1ncn2C1CCCO1` (stereo not drawn) [SQ 22536, reference compound], for which, in assay [1], the cAMP level came out at 74.32 ± 7.56 pmol/mg protein.
In the case of `Cc1[nH]c(=O)c(C#N)cc1-c1ccncc1` [milrinone, reference compound], in assay [3], the “relaxation” value was “cause relaxations”. Moreover, the “cAMP accumulation versus vehicle (FIG. 6)” value in assay [1] was “significant elevations”. Besides, in assay [2], the “amounts of cGMP versus vehicle (FIG. 6)” value is on record as “not observed”.
Take `COc1ccc(C2CNC(=O)C2)cc1OC1CCCC1` (stereo not drawn) [rolipram, reference compound]: the “relaxation” value in assay [3] is listed as “cause relaxations”. In addition, the “cAMP accumulation versus vehicle (FIG. 6)” value in assay [1] is “significant elevations”. Besides, the “amounts of cGMP versus vehicle (FIG. 6)” value in assay [2] was “not observed”.
